Test results as given in patent US20260256792A1, “TREATMENT OF CHRONIC SPONTANEOUS URTICARIA BY ADMINISTERING (R)-2-[3-[4-AMINO-3-(2-FLUORO-4-PHENOXY-PHENYL)PYRAZOLO[3,4-D]PYRIMIDIN-1-YL]PIPERIDINE-1-CARBONYL]-4-METHYL-4-[4-(OXETAN-3-YL)PIPERAZIN-1-YL]PENT-2-ENENITRILE” (priority 2023, published 2026).

Tested on: moderate-to-severe chronic spontaneous urticaria (CSU)
Assay: Phase 2 CSU study: urticaria activity score over 7 days (UAS7)
Assay type: in vivo, human
Set-up: key to UAS7 Median / UAS7 Change from baseline Median / UAS7 change from baseline, Q1 / UAS7 change from baseline, Q3 / UAS7 change from baseline, Max / UAS7 Change from baseline LS Mean (SE): UAS7 points; daily UAS score ranges 0–6 points/day, over 7 days
Text: The study comprises a 12 week, randomized, double-blind, placebo-controlled, multi-center, dose-ranging efficacy and safety phase, followed by a 40 week open label extension (OLE) phase (see FIG. 1). The study consists of three phases and an optional OLE phase. […] Clinically, CSU is characterized by the spontaneous and recurrent appearance of pruritic hives. The proposed primary endpoints were the UAS7 at Week 12 in EU and EU reference countries and the ISS7 in the US. Regardless of where a participant was from, all assessments were the same. The UAS7 score is a composite score containing both the HSS7 and the ISS7. This allowed a global assessment of the two key components of urticaria: hives and itch. […] The UAS is a validated PRO measure. […] The daily UAS scores range from 0 to 6 point/day. […] Patients were to complete the UAS using the e-diary. […] The following secondary endpoints were to be analyzed using the same approach as for the primary endpoint: • Change from baseline in UAS7 at Week 4 • Change from baseline in UAS7 at Week 12 (for US and US reference countries) • Change from baseline in ISS7 at Week 12 (except US and US reference countries) • Change from baseline in HSS7 at Week 12 The following responder secondary endpoints were to be analyzed using the Cochran-Mantel-Haenszel test adjusted by region: • Proportion of participants with UAS7<6 at Week 12 • Proportion of participants with UAS7=0 at Week 12 Participants who received selected prohibited medications and/or rescue medications were to be considered as non-responders for time points after the medication usage. For other participants, all available data including those collected during the off-treatment period were to be used to determine the responder/non-responder status. Missing data were to be considered as non-responders.

[1] = ITT Population, 400 mg TID, Week 1
[2] = ITT Population, 400 mg TID, Week 12
[3] = ITT population, 400 mg BID, Week 1
[4] = ITT population, 400 mg BID, Week 3
[5] = ITT population, 400 mg BID, Week 4
[6] = ITT population, 400 mg BID, Week 5
[7] = ITT population, 400 mg BID, Week 6
[8] = ITT population, 400 mg BID, Week 7
[9] = ITT population, 400 mg BID, Week 8
[10] = ITT population, 400 mg BID, Week 9
[11] = ITT population, 400 mg BID, Week 10
[12] = ITT population, 400 mg BID, Week 11
[13] = ITT population, 400 mg BID, Week 12
[14] = ITT population, 400 mg QPM, Week 1
[15] = ITT population, 400 mg QPM, Week 2
[16] = ITT population, 400 mg QPM, Week 4
[17] = ITT population, 400 mg QPM, Week 6
[18] = ITT population, 400 mg QPM, Week 7
[19] = ITT population, 400 mg QPM, Week 8
[20] = ITT population, 400 mg QPM, Week 9
[21] = ITT population, 400 mg QPM, Week 10
[22] = ITT population, 400 mg QPM, Week 11
[23] = ITT population, 400 mg QPM, Week 12
[24] = ITT population, 400 mg TID, Week 2
[25] = ITT population, 400 mg TID, Week 3
[26] = ITT population, 400 mg TID, Week 4
[27] = ITT population, 400 mg TID, Week 5

## CC(C)(C=C(C#N)C(=O)N1CCC[C@@H](n2nc(-c3ccc(Oc4ccccc4)cc3F)c3c(N)ncnc32)C1)N1CCN(C2COC2)CC1 [rilzabrutinib, (R)-2-[3-[4-amino-3-(2-fluoro-4-phenoxy-phenyl)pyrazolo[3,4-d]pyrimidin-1-yl]piperidine-1-carbonyl]-4-methyl-4-[4-(oxetan-3-yl)piperazin-1-yl]pent-2-enenitrile]
ITT Population, 400 mg QPM, Week 5
  UAS7 Post-baseline Mean (SD): 20.58 (9.05)
[1]
  UAS7 % Change difference for rilzabrutinib vs. placebo LS Mean (95% CI): −29.94%
  UAS7 % Change from baseline LS Mean (SE): −40.18%
  UAS7 Change from baseline LS Mean (SE): −12.72
  UAS7 Post-baseline Mean (SD): 16.95 (10.13)
[2]
  UAS7 % Change difference for rilzabrutinib vs. placebo LS Mean (95% CI): −26.23%
  UAS7 % Change from baseline LS Mean (SE): −59.16%
  UAS7 Change difference for rilzabrutinib vs. placebo LS Mean (95% CI): −6.76
  UAS7 Change from baseline LS Mean (SE): −17.95
[3]
  UAS7 % Change difference for rilzabrutinib vs. placebo LS Mean (95% CI): −23.93%
  UAS7 % Change from baseline LS Mean (SE): −34.18%
  UAS7 Change difference for rilzabrutinib vs. placebo LS Mean (95% CI): −6.18
  UAS7 Change from baseline LS Mean (SE): −10.01
  UAS7 Post-baseline Mean (SD): 19.98 (11.35)
[4]
  UAS7 % Change difference for rilzabrutinib vs. placebo LS Mean (95% CI): −18.34%
  UAS7 % Change from baseline LS Mean (SE): −39.97%
  UAS7 Change difference for rilzabrutinib vs. placebo LS Mean (95% CI): −4.74
  UAS7 Change from baseline LS Mean (SE): −12.33
  UAS7 Post-baseline Mean (SD): 17.63 (12.02)
[5]
  UAS7 % Change difference for rilzabrutinib vs. placebo LS Mean (95% CI): −20.76%
  UAS7 % Change from baseline LS Mean (SE): −44.02%
  UAS7 Change difference for rilzabrutinib vs. placebo LS Mean (95% CI): −5.34
  UAS7 Change from baseline LS Mean (SE): −13.41
  UAS7 Post-baseline Mean (SD): 15.62 (12.20)
[6]
  UAS7 % Change difference for rilzabrutinib vs. placebo LS Mean (95% CI): −10.88%
  UAS7 % Change from baseline LS Mean (SE): −42.67%
  UAS7 Change difference for rilzabrutinib vs. placebo LS Mean (95% CI): −2.61
  UAS7 Change from baseline LS Mean (SE): −12.81
  UAS7 Post-baseline Mean (SD): 16.44 (13.70)
[7]
  UAS7 % Change difference for rilzabrutinib vs. placebo LS Mean (95% CI): −14.76%
  UAS7 % Change from baseline LS Mean (SE): −41.66%
  UAS7 Change difference for rilzabrutinib vs. placebo LS Mean (95% CI): −3.64
  UAS7 Change from baseline LS Mean (SE): −12.78
  UAS7 Post-baseline Mean (SD): 16.51 (12.98)
[8]
  UAS7 % Change difference for rilzabrutinib vs. placebo LS Mean (95% CI): −20.46%
  UAS7 % Change from baseline LS Mean (SE): −47.80%
  UAS7 Change difference for rilzabrutinib vs. placebo LS Mean (95% CI): −5.50
  UAS7 Change from baseline LS Mean (SE): −14.56
  UAS7 Post-baseline Mean (SD): 15.04 (12.35)
[9]
  UAS7 % Change difference for rilzabrutinib vs. placebo LS Mean (95% CI): −21.40%
  UAS7 % Change from baseline LS Mean (SE): −53.24%
  UAS7 Change difference for rilzabrutinib vs. placebo LS Mean (95% CI): −5.61
  UAS7 Change from baseline LS Mean (SE): −15.96
  UAS7 Post-baseline Mean (SD): 13.59 (13.23)
[10]
  UAS7 % Change difference for rilzabrutinib vs. placebo LS Mean (95% CI): −24.16%
  UAS7 % Change from baseline LS Mean (SE): −52.21%
  UAS7 Change difference for rilzabrutinib vs. placebo LS Mean (95% CI): −5.85
  UAS7 Change from baseline LS Mean (SE): −15.45
  UAS7 Post-baseline Mean (SD): 14.13 (14.43)
[11]
  UAS7 % Change difference for rilzabrutinib vs. placebo LS Mean (95% CI): −17.60%
  UAS7 % Change from baseline LS Mean (SE): −51.13%
  UAS7 Change difference for rilzabrutinib vs. placebo LS Mean (95% CI): −4.46
  UAS7 Change from baseline LS Mean (SE): −15.36
  UAS7 Post-baseline Mean (SD): 14.82 (14.24)
[12]
  UAS7 % Change difference for rilzabrutinib vs. placebo LS Mean (95% CI): −19.11%
  UAS7 % Change from baseline LS Mean (SE): −49.87%
  UAS7 Change difference for rilzabrutinib vs. placebo LS Mean (95% CI): −4.55
  UAS7 Change from baseline LS Mean (SE): −14.95
  UAS7 Post-baseline Mean (SD): 14.55 (13.86)
[13]
  UAS7 % Change difference for rilzabrutinib vs. placebo LS Mean (95% CI): −16.41%
  UAS7 % Change from baseline LS Mean (SE): −49.34%
  UAS7 Change difference for rilzabrutinib vs. placebo LS Mean (95% CI): −3.62
  UAS7 Change from baseline LS Mean (SE): −14.82
  UAS7 Post-baseline Mean (SD): 14.70 (14.29)
[14]
  UAS7 % Change difference for rilzabrutinib vs. placebo LS Mean (95% CI): −12.22%
  UAS7 % Change from baseline LS Mean (SE): −22.47%
  UAS7 Change difference for rilzabrutinib vs. placebo LS Mean (95% CI): −3.61
  UAS7 Change from baseline LS Mean (SE): −7.44
  UAS7 Post-baseline Mean (SD): 23.84 (8.66)
[15]
  UAS7 % Change difference for rilzabrutinib vs. placebo LS Mean (95% CI): −6.32%
  UAS7 % Change from baseline LS Mean (SE): −25.19%
  UAS7 Change difference for rilzabrutinib vs. placebo LS Mean (95% CI): −1.80
  UAS7 Change from baseline LS Mean (SE): −8.14
  UAS7 Post-baseline Mean (SD): 23.40 (8.85)
[16]
  UAS7 % Change difference for rilzabrutinib vs. placebo LS Mean (95% CI): −5.97%
  UAS7 % Change from baseline LS Mean (SE): −29.23%
  UAS7 Change difference for rilzabrutinib vs. placebo LS Mean (95% CI): −1.48
  UAS7 Change from baseline LS Mean (SE): −9.55
  UAS7 Post-baseline Mean (SD): 21.82 (8.73)
[17]
  UAS7 % Change difference for rilzabrutinib vs. placebo LS Mean (95% CI): −7.24%
  UAS7 % Change from baseline LS Mean (SE): −34.14%
  UAS7 Change difference for rilzabrutinib vs. placebo LS Mean (95% CI): −1.88
  UAS7 Change from baseline LS Mean (SE): −11.02
  UAS7 Post-baseline Mean (SD): 20.12 (10.28)
[18]
  UAS7 % Change difference for rilzabrutinib vs. placebo LS Mean (95% CI): −7.16%
  UAS7 % Change from baseline LS Mean (SE): −34.50%
  UAS7 Change difference for rilzabrutinib vs. placebo LS Mean (95% CI): −1.89
  UAS7 Change from baseline LS Mean (SE): −10.95
  UAS7 Post-baseline Mean (SD): 20.98 (9.91)
[19]
  UAS7 % Change difference for rilzabrutinib vs. placebo LS Mean (95% CI): −3.38%
  UAS7 % Change from baseline LS Mean (SE): −35.22%
  UAS7 Change difference for rilzabrutinib vs. placebo LS Mean (95% CI): −0.53
  UAS7 Change from baseline LS Mean (SE): −10.88
  UAS7 Post-baseline Mean (SD): 21.01 (10.40)
[20]
  UAS7 % Change difference for rilzabrutinib vs. placebo LS Mean (95% CI): −8.48%
  UAS7 % Change from baseline LS Mean (SE): −36.53%
  UAS7 Change difference for rilzabrutinib vs. placebo LS Mean (95% CI): −1.73
  UAS7 Change from baseline LS Mean (SE): −11.33
  UAS7 Post-baseline Mean (SD): 20.18 (10.10)
[21]
  UAS7 % Change difference for rilzabrutinib vs. placebo LS Mean (95% CI): −3.82%
  UAS7 % Change from baseline LS Mean (SE): −37.35%
  UAS7 Change difference for rilzabrutinib vs. placebo LS Mean (95% CI): −0.76
  UAS7 Change from baseline LS Mean (SE): −11.66
  UAS7 Post-baseline Mean (SD): 20.15 (10.55)
[22]
  UAS7 % Change difference for rilzabrutinib vs. placebo LS Mean (95% CI): −5.62%
  UAS7 % Change from baseline LS Mean (SE): −36.39%
  UAS7 Change difference for rilzabrutinib vs. placebo LS Mean (95% CI): −0.52
  UAS7 Change from baseline LS Mean (SE): −10.92
  UAS7 Post-baseline Mean (SD): 21.08 (11.00)
[23]
  UAS7 % Change difference for rilzabrutinib vs. placebo LS Mean (95% CI): −2.09%
  UAS7 % Change from baseline LS Mean (SE): −35.03%
  UAS7 Change difference for rilzabrutinib vs. placebo LS Mean (95% CI): 0.97
  UAS7 Change from baseline LS Mean (SE): −10.22
  UAS7 Post-baseline Mean (SD): 21.80 (10.94)
[24]
  UAS7 % Change difference for rilzabrutinib vs. placebo LS Mean (95% CI): −29.83%
  UAS7 % Change from baseline LS Mean (SE): −48.69%
  UAS7 Change difference for rilzabrutinib vs. placebo LS Mean (95% CI): −8.72
  UAS7 Change from baseline LS Mean (SE): −15.06
  UAS7 Post-baseline Mean (SD): 14.58 (10.74)
[25]
  UAS7 % Change difference for rilzabrutinib vs. placebo LS Mean (95% CI): −28.32%
  UAS7 % Change from baseline LS Mean (SE): −49.95%
  UAS7 Change difference for rilzabrutinib vs. placebo LS Mean (95% CI): −7.56
  UAS7 Change from baseline LS Mean (SE): −15.15
  UAS7 Post-baseline Mean (SD): 14.42 (9.77)
[26]
  UAS7 % Change difference for rilzabrutinib vs. placebo LS Mean (95% CI): −25.68%
  UAS7 % Change from baseline LS Mean (SE): −48.94%
  UAS7 Change difference for rilzabrutinib vs. placebo LS Mean (95% CI): −6.71
  UAS7 Change from baseline LS Mean (SE): −14.78
  UAS7 Post-baseline Mean (SD): 13.93 (9.77)
[27]
  UAS7 % Change difference for rilzabrutinib vs. placebo LS Mean (95% CI): −22.21%
  UAS7 % Change from baseline LS Mean (SE): −54.01%
  UAS7 Change difference for rilzabrutinib vs. placebo LS Mean (95% CI): −6.47
